Molecular target: T1, GLR-1(+STG-1, SOL-1) (Caenorhabditis elegans, UniProt P34299)
T1 construct: cRNAs of GLR-1, SOL-1 and STG-1 co-injected into Xenopus laevis oocytes; homomeric GLR-1 with auxiliary proteins; with CUB domain-containing protein SOL-1 (suppressor of lurcher 1); Stargazin-like protein STG-1
T1 sequence (P34299 26-962): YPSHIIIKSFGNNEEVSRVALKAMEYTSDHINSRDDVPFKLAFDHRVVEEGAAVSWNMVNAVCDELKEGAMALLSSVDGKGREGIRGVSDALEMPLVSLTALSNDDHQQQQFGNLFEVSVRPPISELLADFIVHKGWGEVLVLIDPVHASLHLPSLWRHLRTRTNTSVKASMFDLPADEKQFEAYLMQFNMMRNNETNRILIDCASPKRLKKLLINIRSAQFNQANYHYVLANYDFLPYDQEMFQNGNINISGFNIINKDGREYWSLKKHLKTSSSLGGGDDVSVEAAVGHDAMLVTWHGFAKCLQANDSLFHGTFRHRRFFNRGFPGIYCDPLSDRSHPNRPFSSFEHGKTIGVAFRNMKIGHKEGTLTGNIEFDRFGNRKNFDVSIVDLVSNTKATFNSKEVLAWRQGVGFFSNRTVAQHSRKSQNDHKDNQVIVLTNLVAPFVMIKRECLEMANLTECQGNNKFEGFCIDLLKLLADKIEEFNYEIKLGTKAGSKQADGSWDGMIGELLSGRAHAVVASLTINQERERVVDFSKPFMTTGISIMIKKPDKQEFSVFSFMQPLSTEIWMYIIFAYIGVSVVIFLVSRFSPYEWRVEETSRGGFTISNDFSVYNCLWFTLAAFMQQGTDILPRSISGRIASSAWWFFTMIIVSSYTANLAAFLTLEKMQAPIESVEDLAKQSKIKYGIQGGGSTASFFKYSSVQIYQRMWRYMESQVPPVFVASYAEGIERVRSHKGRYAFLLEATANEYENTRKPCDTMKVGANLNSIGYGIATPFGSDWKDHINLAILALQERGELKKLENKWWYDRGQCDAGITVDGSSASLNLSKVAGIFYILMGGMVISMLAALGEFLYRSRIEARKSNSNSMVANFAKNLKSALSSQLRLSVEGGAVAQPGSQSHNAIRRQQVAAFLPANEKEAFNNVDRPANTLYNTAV
T1 sequence (Q15KL0 1-366 partner): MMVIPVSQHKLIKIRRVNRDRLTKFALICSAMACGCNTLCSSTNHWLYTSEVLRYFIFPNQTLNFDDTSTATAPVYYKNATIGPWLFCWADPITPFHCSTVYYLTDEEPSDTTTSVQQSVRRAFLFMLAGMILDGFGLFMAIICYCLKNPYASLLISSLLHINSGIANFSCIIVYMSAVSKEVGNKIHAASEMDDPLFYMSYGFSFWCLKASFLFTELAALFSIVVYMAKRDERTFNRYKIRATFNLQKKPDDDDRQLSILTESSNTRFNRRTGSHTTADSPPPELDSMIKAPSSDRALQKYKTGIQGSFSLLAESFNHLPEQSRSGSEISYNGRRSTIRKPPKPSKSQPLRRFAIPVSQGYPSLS
T1 sequence (Q93212 24-594 partner): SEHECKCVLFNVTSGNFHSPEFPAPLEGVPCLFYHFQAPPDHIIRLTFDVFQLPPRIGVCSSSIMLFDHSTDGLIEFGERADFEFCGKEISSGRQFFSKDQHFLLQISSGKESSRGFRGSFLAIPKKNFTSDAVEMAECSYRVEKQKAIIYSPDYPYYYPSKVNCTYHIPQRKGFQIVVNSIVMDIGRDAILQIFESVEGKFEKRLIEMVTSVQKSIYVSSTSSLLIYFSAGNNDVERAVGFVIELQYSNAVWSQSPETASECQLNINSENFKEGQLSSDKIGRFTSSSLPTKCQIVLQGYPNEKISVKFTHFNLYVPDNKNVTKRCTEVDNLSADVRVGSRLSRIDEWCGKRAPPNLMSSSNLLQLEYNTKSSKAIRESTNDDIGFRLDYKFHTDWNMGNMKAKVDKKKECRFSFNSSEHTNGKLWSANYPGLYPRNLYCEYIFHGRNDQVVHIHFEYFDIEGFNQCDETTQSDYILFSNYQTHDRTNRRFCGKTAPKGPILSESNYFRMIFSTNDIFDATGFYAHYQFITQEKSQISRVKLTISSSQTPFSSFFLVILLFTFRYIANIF
Assay: two-electrode voltage clamp of Xenopus oocytes, glutamate dose-response current
Format: cell-based
Settings: agonist; inward cation current; with SOL-1 and STG-1; clamped -50 to -60 mV; pH 7.2; 0.1-10 mM glutamate for 20 s

Compound: N[C@@H](CCC(=O)O)C(=O)O [glutamate]
- two-electrode voltage clamp of Xenopus oocytes, glutamate dose-response current: Dose-response relationship of GLR-1-expressing Xenopus oocyte

From article PMC9142520, “Molecular encoding and synaptic decoding of context during salt chemotaxis in C. elegans” (Nature Communications, 2022)
